This is an account of results in US9393221B2, “Methods and compounds for reducing intracellular lipid storage” (THE GENERAL HOSPITAL CORPORATION, priority 2011, dated 2016).

Each structure is given as a SMILES string. Structures can show the parent of a compound that is named as a salt.

The test has as its system ATGL-KO iPSCs. Put plainly: High throughput iPSC chemical screening, Oil Red O (ORO) lipid accumulation. Note: test concentration or dose not given here. Format: cell-based, mouse. The settings on record: normalized ORO level vs DMSO-treated cells; compound present during 7 days differentiation, 96-well; negative = decrease in lipid accumulation.

With `CC(=O)N(CC(O)CO)c1c(I)c(C(=O)NCC(O)CO)c(I)c(C(=O)NCC(O)CO)c1I` (stereo not drawn) [Iohexol], the Z-score is reported as −1.1016.
To `C[C@H](O)C(=O)Nc1c(I)c(C(=O)NC(CO)CO)c(I)c(C(=O)NC(CO)CO)c1I` [Iopamidol] belongs 1.108.
To `CCC(Cc1c(I)cc(I)c(N)c1I)C(=O)O` (stereo not drawn) [Iopanoic acid] belongs −0.7767; to `COCC(=O)Nc1c(I)c(C(=O)NCC(O)CO)c(I)c(C(=O)N(C)CC(O)CO)c1I` (stereo not drawn) [Iopromide], 0.2481; to `O=C(NCC(O)CO)c1c(I)c(C(=O)NCC(O)CO)c(I)c(N(CCO)C(=O)CO)c1I` (stereo not drawn) [Ioversol], 0.08392.
In the case of `CNC(=O)c1c(I)c(C(=O)NCC(=O)Nc2c(I)c(C(=O)O)c(I)c(C(=O)NCCO)c2I)c(I)c(N(C)C(C)=O)c1I` [Ioxaglic acid] it was −0.54; in that of `CC(C)[N+]1(C)[C@@H]2CC[C@H]1CC(OC(=O)C(CO)c1ccccc1)C2.[Br-]` (stereo partly drawn) [Ipratropium bromide], −0.1032; in that of `Cc1cc(C(=O)NNCc2ccccc2)no1` [Isocarboxazid], 1.91.
As to `Clc1ccc(C(Cn2ccnc2)OCc2c(Cl)cccc2Cl)c(Cl)c1` (stereo not drawn) [Isoconazole], the Z-score is −1.2562.
The molecule `COc1ccc2c(c1O)-c1c(OC)c(OC)cc3c1[C@H](C2)N(C)CC3` [Isocorydine (+)] returned a Z-score of −0.7668.
In the case of `CC(=O)OCC(=O)[C@@]1(O)CC[C@H]2[C@@H]3CCC4=CC(=O)C=C[C@]4(C)[C@@]3(F)[C@@H](O)C[C@@]21C` [Isoflupredone acetate] it was 1.55; in that of `CNC(C)CCC=C(C)C.CNC(C)CCC=C(C)C.O=C(O)[C@@H](O)[C@H](O)[C@H](O)[C@@H](O)C(=O)O` [Isometheptene mucate], 0.6197.
In the case of `NNC(=O)c1ccncc1` [Isoniazid] it was 0.9473; in that of `CC(C)[N+](C)(CCC(C(N)=O)(c1ccccc1)c1ccccc1)C(C)C` [Isopropamide iodide], −0.2928.
For the molecule `Cc1c(NC(C)C)c(=O)n(-c2ccccc2)n1C.Cl` [Isopyrin hydrochloride], the Z-score is given as 0.0325.
In the case of `CC1=C(/C=C/C(C)=C/C=C/C(C)=C\C(=O)O)C(C)(C)CCC1` [Isotretinoin] it was −1.1597; in that of `Cc1cc(NC(=O)C2=C(O)c3ccccc3S(=O)(=O)N2C)no1` [Isoxicam], −0.7646; in that of `CC(COc1ccccc1)NC(C)C(O)c1ccc(O)cc1` (stereo not drawn) [Isoxsuprine hydrochloride], 0.3014.
`COC(=O)C1=C(C)NC(C)=C(C(=O)OC(C)C)C1c1cccc2nonc12` (stereo not drawn) [Isradipine] showed a Z-score of 0.2737.
In the case of `CC[C@H](C)[C@H]1O[C@]2(CC[C@@H]1C)C[C@@H]1C[C@@H](C/C=C(\C)[C@@H](O[C@H]3C[C@H](OC)[C@@H](O[C@H]4C[C@H](OC)[C@@H](O)[C@H](C)O4)[C@H](C)O3)[C@@H](C)/C=C/C=C3\CO[C@@H]4[C@H](O)C(C)=C[C@@H](C(=O)O1)[C@]34O)O2` [Ivermectin] it was 0.9419; in that of `CO[C@@H]1[C@@H](O[C@@H]2O[C@H](C)[C@@H](O[C@H]3C[C@@](C)(O)[C@@H](OC(=O)CC(C)C)[C@H](C)O3)[C@H](N(C)C)[C@H]2O)[C@@H](CC=O)C[C@@H](C)[C@@H](O)/C=C/C=C/C[C@@H](C)OC(=O)C[C@H]1OC(C)=O` [Josamycin], −0.5964; in that of `O=c1c(O)c(-c2ccc(O)cc2)oc2cc(O)cc(O)c12` [Kaempferol], −0.0374.
In the case of `NC[C@H]1O[C@H](O[C@H]2[C@H](O)[C@@H](O[C@H]3O[C@H](CO)[C@@H](O)[C@H](N)[C@H]3O)[C@H](N)C[C@@H]2N)[C@H](O)[C@@H](O)[C@@H]1O.O=S(=O)(O)O` [Kanamycin A sulfate] it was 2.436; in that of `CCN1C[C@]2(C)CC[C@H](O)[C@]34C1[C@@H](C[C@H]23)[C@@]1(O)C[C@H](OC)[C@H]2C[C@@H]4[C@@H]1[C@H]2O` [Karakoline], −1.4178; in that of `COC1=CC(=O)O[C@@H](/C=C/c2ccccc2)C1` [Kawain], −0.5048.
`CC(=O)N1CCN(c2ccc(OCC3COC(Cn4ccnc4)(c4ccc(Cl)cc4Cl)O3)cc2)CC1` (stereo not drawn) [Ketoconazole] registered a Z-score of 1.224.
As for `CC(C(=O)O)c1cccc(C(=O)c2ccccc2)c1` (stereo not drawn) [Ketoprofen], the Z-score is reported as −0.219.
In the case of `O=C(c1ccccc1)c1ccc2n1CCC2C(=O)O` (stereo not drawn) [Ketorolac tromethamine] it was −0.8373; in that of `CN1CCC(=C2c3ccccc3CC(=O)c3sccc32)CC1` [Ketotifen fumarate], 0.5681; in that of `COc1c2occc2c(OC)c2c(=O)cc(C)oc12` [Khellin], −0.1533.
In the case of `Cl.OC1CCCCC1N1CCC(c2ccccc2)CC1` (stereo not drawn) [L(−)-vesamicol hydrochloride] it was −1.6146; in that of `CC(CCc1ccccc1)NCC(O)c1ccc(O)c(C(N)=O)c1` (stereo not drawn) [Labetalol hydrochloride], −1.5017; in that of `O=C(O)[C@H](O)[C@@H](O)[C@H](O[C@@H]1O[C@H](CO)[C@H](O)[C@H](O)[C@H]1O)[C@H](O)CO` [Lactobionic acid], −0.5092.
In the case of `CC(=O)O[C@H]1C[C@H](O[C@H]2[C@@H](O)C[C@H](O[C@H]3[C@@H](O)C[C@H](O[C@H]4CC[C@@]5(C)[C@H](CC[C@@H]6[C@@H]5C[C@@H](O)[C@]5(C)[C@@H](C7=CC(=O)OC7)CC[C@]65O)C4)O[C@@H]3C)O[C@@H]2C)O[C@H](C)[C@H]1O[C@@H]1O[C@H](CO)[C@@H](O)[C@H](O)[C@H]1O` [Lanatoside C] it was −1.0291; in that of `Cc1c(OCC(F)(F)F)ccnc1C[S+]([O-])c1nc2ccccc2[nH]1` (stereo not drawn) [Lansoprazole], −0.4696.
Molecule `CC[C@@H](C(=O)[C@@H](C)[C@@H](O)[C@H](C)CCc1ccc(C)c(O)c1C(=O)O)[C@H]1O[C@](CC)([C@H]2CC[C@](O)(CC)[C@H](C)O2)C[C@@H]1C` [Lasalocid sodium salt] came in with a Z-score of 9.898.
To `Cc1oncc1C(=O)Nc1ccc(C(F)(F)F)cc1` [Leflunomide] belongs 1.258; to `N#Cc1ccc(C(c2ccc(C#N)cc2)n2cncn2)cc1` [Letrozole], 0.6693.
To `CC1=CC(=O)C2=C(C)CC[C@@H]3[C@H](OC(=O)[C@H]3C)[C@@H]12` [Leucomisine] belongs −0.2458; to `c1ccc([C@H]2CN3CCSC3=N2)cc1` [Levamisole hydrochloride], −0.8539.
To `C[C@@H]1CN([C@H]2CC[C@](C#N)(c3ccc(F)cc3)CC2)CC[C@]1(C(=O)O)c1ccccc1` [Levocabastine hydrochloride] belongs 1.078; to `N[C@@H](Cc1ccc(O)c(O)c1)C(=O)O` [Levodopa], −0.1655; to `C[C@H](N)[C@H](O)c1ccc(O)c(O)c1` [Levonordefrin], −0.1555.
Regarding `CCC(=O)O[C@@](Cc1ccccc1)(c1ccccc1)[C@@H](C)CN(C)C` [Levopropoxyphene napsylate], the Z-score is given as −1.0896.
`CCN(CC)CC(=O)Nc1c(C)cccc1C.Cl` [LidocaOne hydrochloride] displayed a Z-score of −0.9429.
